In patent publication US20160084855A1, “Compositions and Methods for Modulation and Detection of Immune and Inflammatory Responses” (UNIVERSITY OF CONNECTICUT, priority 2013, published 2016):
Values joined by “and” are separate entries in the source; they are usually repeats but may differ in a detail not shown here. Identical values can stand only once.

Columns and labels:
[1] = system: C57BL/6 (WT), TLR2−/−, IL-15−/− and IL-15Rα−/− mice with EAE; assay: EAE induced with MOG35-55 in CFA plus pertussis toxin; clinical grading; type: in vivo, mouse; settings: for Mean Day of Onset of EAE / Mean Maximum Severity of EAE / Mean Incidence of disease: PE DHC; for Mean Maximum Severity of EAE: 20-day observation; for MDD (Mean Daily Disease) / CDI (cumulative disease index): PE DHC 250 ng single i.p. Day 0; for MDD (Mean Daily Disease): 20 days; for CDI (cumulative disease index): through Day 20
Experimental: […]. In addition, mice were injected intraperitoneally (i.p.) on Day 0 with either P. gingivalis lipid or the vehicle control, 70% ethanol (EtOH). EAE was scored as: Grade 1-tail paralysis; Grade 2-weakness of hind limbs with an altered gait; Grade 3-hind limb paralysis; Grade 4-front limb paralysis; Grade 5-death.
For treatment of mice, preweighed lipids were dissolved in 70% ethanol to achieve a final concentration of 125 ng/μl, and sonicated for 2.5 minutes immediately before injection into experimental animals. This preparation was also used for drying lipids onto tissue culture wells. For direct addition to cell cultures, the lipids were dissolved in culture medium at 125 ng/μl and sonicated for 2.5 minutes to produce a liposome preparation for administration to cells in culture.
The cumulative disease index (CDI) was obtained by summing the daily average disease scores through Day 20. A mean of these daily disease scores (Mean Daily Disease) (+/−SEM) was calculated based on the 20 days of observation. The Mean Daily Disease scores were compared using the Wilcoxin Signed Rank tests for two samples. Disease incidence frequencies were compared using Chi square analysis. Values for mean maximum severity of EAE were compared using the Wilcoxin Signed Rank test. Values for mean day of onset of EAE were compared using the Student's t-test. For analysis of spinal cord populations, percentages were compared using Student's t test. Bacterial fatty acid levels in brain lipid extracts for each treatment group were evaluated using least squares linear regression analysis that included calculation of correlation coefficients. For each dose of bacterial lipid administered, linear regression analysis compared the final EAE score with the mean bacterial fatty acid recovered per 0.5 mg of brain lipid extract. The mean bacterial fatty acid levels were calculated from three replicate brain lipid determinations.
EAE was induced in female C57BL/6 (WT) mice and these mice were also injected i.p. on Day 0 with either P. gingivalis lipids or the vehicle control, 70% ethanol (EtOH). To most effectively detect effects of P. gingivalis lipids in the development of autoimmunity, less severe EAE was induced by using CFA with […] concentrations of H37RA mycobacteria (500 μg/mouse). […] Component HPLC fractions of the TL were examined individually. […] FIG. 7 illustrates one representative experiment of six similar studies, in which 250 ng of PE DHC was administered to WT mice.
Mice deficient in either IL-15 (IL-15^−/− mice) or the IL-15 receptor α (IL-15Rα^−/− mice) are known to express very few identifiable NKT cells (Kennedy et al. “Reversible defects in natural killer and memory CD8 T cell lineages in interleukin 15-deficient mice,” J. Exp. Med. 191:771-780 (2000); Lodolce et al. “IL-15 receptor maintains lymphoid homeostasis by supporting lymphocyte homing and proliferation” Immunity 9:669-676 (1998). WT mice and either IL-15^−/− or IL-15Rα^−/− mice (both on a C57BL/6 background) were immunized for EAE and given a single i.p. injection of EtOH or PE DHC on Day 0. […] FIGS. 8 and 9 show representative experiments using IL-15^−/− and IL-15Rα^−/− mice.
TLR-2 deficient (TLR2^−/−) mice were immunized with the standard EAE-inducing MOG protocol and administered a single i.p. injection of either EtOH or PE DHC on Day 0.

[2] = system: spinal cord CD4+ and Foxp3+ T cells; assay: Flow cytometry of spinal cord mononuclear cells of mice with EAE; type: in vivo, mouse
Description: Spinal cord mononuclear cells were derived as previously described in Korn et al. “Myelin-specific regulatory T cells accumulate in the CNS but fail to control autoimmune inflammation” Nat. Med. 13:423-431 (2007) and stained for CD4 (FITC α-CD4 (GK1.5) BD Pharmingen) and Foxp3 (APC α-FoxP3 (FJK-16s; E-Bioscience), or stimulated in culture for 4 hrs with phorbol myristyl acetate and ionomycin prior to staining for Thy1.2 (PE-Cy7 anti-CD 90.2; E-Biosciences) and intracellular IFNγ (APC αIFNγ; BD Pharmingen) and IL-17 (Alexa Fluor 488 α-IL-17A; BD Pharmingen).
To characterize mechanisms by which PE DHC may enhance autoimmune disease in vivo, the experimental studies tested whether the PE DHC-mediated enhancement of EAE was associated with alterations in T cell populations at a site of disease. WT mice were immunized with the usual EAE-inducing protocol and treated on Day 0 with EtOH or PE DHC (250 ng i.p.). Within 5 days after onset of EAE, mice were sacrificed and exsanguinated, their spinal cords were removed, and the mononuclear cells were derived from the spinal cords. These cells were analyzed directly for CD4 and Foxp3 expression by flow cytometry or were stimulated with PMA and ionomycin for 4 hours and then, gating on Thy1.2+ cells, analyzed for intra-cellular interferon gamma (IFNγ) and IL-17 by flow cytometry. […] However, the percentage of CD4+ T cells within the total mononuclear cell populations derived from the spinal cords of PE DHC-treated mice was, on average, greater than the percentage in EtOH-treated mice (as illustrated in Table 2). […] The mean percentage of spinal cord cells that were CD4+ was 41% in EtOH-treated mice and, on average, 6.7% of these were Foxp3+. In contrast, the mean percentage of spinal cord cells that were CD4+ T cells was 52% in PE DHC-treated mice and, on average, 4.3% of these were Foxp3+. It has been reported in Korn et al. “Myelin-specific regulatory T cells accumulate in the CNS but fail to control autoimmune inflammation” Nat. Med. 13:423-431 (2007) that the percentage of spinal cord CD4+ Foxp3+ T cells increased as the disease progressed. […] Based on this observation, it was unlikely that the decrease in the percentage of Foxp3+ in PE-DHC-treated mice was related to differences in disease duration.

[3] = IL-15Rα−/− mice that developed EAE
[4] = IL-15−/− mice that developed EAE
[5] = TLR2−/− mice that developed EAE
[6] = Wild Type mice that developed EAE

phosphoethanolamine dihydroceramide [PE DHC]
Mean Day of Onset of EAE [1, 3]: 13.8 days
Mean Maximum Severity of EAE [1, 3]: 2.9
Mean Incidence of disease ([1]; IL-15Rα−/− mice): 100%
MDD (Mean Daily Disease) ([1]; IL-15Rα−/− mice): 0.9
CDI (cumulative disease index) ([1]; IL-15Rα−/− mice): 18.7
CDI and mean daily disease compared with EtOH-treated mice ([1]; IL-15−/− and IL-15Rα−/− mice): greater than a doubling
Effect on EAE ([1]; IL-15−/− and IL-15Rα−/− mice, single i.p. injection Day 0): significantly enhanced EAE
Mean Day of Onset of EAE [1, 4]: 13.0 days
Mean Maximum Severity of EAE [1, 4]: 3.7
Mean Incidence of disease ([1]; IL-15−/− mice): 90%
MDD (Mean Daily Disease) ([1]; IL-15−/− mice): 1.2
CDI (cumulative disease index) ([1]; IL-15−/− mice): 24.5
Mean Day of Onset of EAE [1, 5]: 14.7 days
Mean Maximum Severity of EAE [1, 5]: 2.9
Mean Incidence of disease ([1]; TLR2−/− mice): 46.6%
MDD (Mean Daily Disease) ([1]; TLR2−/− mice): 0.4
CDI (cumulative disease index) ([1]; TLR2−/− mice): 8.3
Effect on CDI and mean daily disease ([1]; TLR2−/− mice, single i.p. injection Day 0): did not mediate enhancement of CDI or mean daily disease
CDI and mean daily disease compared with EtOH-treated mice ([1]; WT mice, 250 ng, cumulative results of six experiments): essentially a doubling
Effect on EAE disease ([1]; WT mice, 2.5 μg, 250 ng and 25 ng, 250 ng most efficient): led to enhanced disease
Onset of disease compared to EtOH-treated mice ([1]; WT mice, p=0.008): significantly earlier onset of disease
Effect on severity of EAE ([1]; WT mice, single 250 ng i.p. injection on Day 0): consistently enhanced the severity of EAE
Mean Day of Onset of EAE [1, 6]: 12.1 days
Mean Maximum Severity of EAE [1, 6]: 3.6
Mean Incidence of disease ([1]; Wild Type mice): 75%
MDD (Mean Daily Disease) ([1]; Wild Type mice): 1.0
CDI (cumulative disease index) ([1]; Wild Type mice): 19.8
Total number of mononuclear cells obtained from the spinal cords, versus EtOH ([2]; WT mice, PE DHC 250 ng i.p.): no significant difference
Percentages of spinal cord CD4+ T cells staining for intra-cellular IFNγ or IL-17, versus EtOH ([2]; WT mice, PE DHC 250 ng i.p., PMA and ionomycin 4 hours): not significantly different
DISEASE GRADE ([2]; individual WT mice at sacrifice, PE DHC 250 ng i.p. Day 0): 3.3 (2×) and 3.5 and 2.9 (2×) and 3.0
% CD4+ in spinal cord ([2]; individual WT mice, PE DHC 250 ng i.p. Day 0, 1-5 days after onset of EAE, of total mononuclear cells): 72.00% and 38.00% and 68.86% and 49.54% and 40.83% and 46.50%
% Foxp3+ in spinal cord ([2]; individual WT mice, PE DHC 250 ng i.p. Day 0, after gating on CD4+ T cells): 4.53% and 7.52% and 2.75% and 3.45% and 3.21% and 4.27%
